Test system: severe systemic inflammatory response syndrome (SIRS)
Experiment: Treatment of intensive-care patients with severe SIRS / septic shock by continuous administration of sodium selenite (case reports)
Assay type: in vivo, human
Procedure: A patient, 75 kg, chronic alcoholic with no history of icteroascitic, hemorrhagic or encephalopathic compensation, was admitted to postoperative intensive care with generalized purulent peritonitis from colonic perforation during an attack of diverticular sigmoiditis.
His initial hemodynamics were maintained by perfusion. […] There was a moderate renal insufficiency. An adapted empirical antibiotic therapy was begun, and modified after 48 hours in view of the antiobiograms. At 24 hours severity indexes were IGS II 29, APACHE II 17 and SOFA score was 5. One day after the operation, the situation worsened rapidly with onset of a state of shock with lactic acidosis 5 μmol/l requiring administration of dopamine then rapidly noradrenaline up to 4 mg/h (0.9 μg/kg/min). There was a deterioration of respiratory state requiring increase of the FiO2 because of the onset of an acute adult respiratory distress syndrome (ARDS). As soon as the necessity of noradrenaline administration was recognized, a treatment with sodium selenite by continuous administration was begun at a dose of 4 mg of atomic selenium equivalent over the first 24 hours, followed by continuous administration of sodium selenite at a dose of 1 mg of atomic selenium equivalent for 10 days.
A patient, depressive, anorexic, 51 kg and 1.75 m tall, was admitted on a tentative diagnosis of drug-induced suicide with ingestion of a large amount of analgesics and sedatives. The diagnosis was rapidly changed to generalized purulent peritonitis from a perforated gastric ulcer. They were transferred to postoperative intensive care. There was also a shock condition requiring perfusion and introduction of catechol amines as noradrenaline and dolbutamine; lactic acidosis at 6 μmol/l. Antibacterial and antifungal antibiotic therapy was performed. Diuresis was maintained under diuretics. One hour after the start of noradrenaline administration, a treatment with sodium selenite by continuous administration was begun at a dose of 4 mg of atomic selenium equivalent over the first 24 hours, followed by continuous administration of sodium selenite at a dose of 1 mg of atomic selenium equivalent for 10 days. At 24 hours the severity indexes were IGS II 44, APACHE II 35. The SOFA score was 8.
A patient, presenting major alcohol-tobacco addiction (more than 1 liter of wine per day, 2 packets of cigarettes per day), chronic BPCO respiratory insufficiency, stage 2 arteritis of the lower limbs and deterioration in general health for several months with a productive cough, was transferred to intensive care after a short stay in general medicine. At admission there was a respiratory distress requiring emergency intubation-ventilation. Blood gases confirmed major respiratory acidosis. The patient was feverish. There was a hyperleucocytosis of 24 000 leucocytes of which 88% were polymorphonuclear cells. Blood pressure was stable under perfusion, however there were blotches on the knees. There were no coagulation problems nor renal insufficiency. At 24 hours IGS II was 41, APACHE II 26, and SOFA score 8. Lung samples taken by protected telescopic brush and brochoalveolar washing confirmed the diagnosis of community-acquired pneumonia: 47% of cells infected, Haemophilus influenza β-lactamase negative and wild-type streptococcal anginosis.
The immediate development was marked by a rapid deterioration of respiratory state with necessity of ventilation at FiO2 100%, PEP 8. In addition, very substantial perfusion was necessary with measurement of pressure by right catheterization. Dopamine had to be administered at 10 μg/kg/min. After 8 hours dopamine administration, a treatment with sodium selenite by continuous administration was begun at a dose of 4 mg of atomic selenium equivalent over the first 24 hours, followed by continuous administration of sodium selenite at a dose of 1 mg of atomic selenium equivalent for 10 days. […]

SMILES: O=[Se](O)O [sodium selenite, Sodium selenite [Na2O3Se]]
- left intensive care, time after the operation (Example 1): 10 days
- platelet level (Example 1, no disseminated intravascular coagulation): higher than 150 000 platelets/mm^3
- extubation, time after the operation (Example 2): 20 days
- platelet level (Example 2): 50%
- time to regression of the shock condition (Example 2: patient, purulent peritonitis, shock, 4 mg atomic selenium equivalent over first 24 hours, then 1 mg for 10 days): 24 h
- hyperlactatemia, maximum (then reduced as from the second day) (Example 3): 10 µmol/L
- thrombopenia, platelets (Example 3, moderate CIVD): 7500 platelets/mm^3

From US7635491B2, “Method for administering selenium for treating patients suffering from systemic inflammatory response syndrome (SIRS), and composition for implementing the treatment” (priority 1998, dated 2009)
